Laboratory results: ChEMBL document CHEMBL1141381, “Alkynylpyrimidine amide derivatives as potent, selective, and orally active inhibitors of Tie-2 kinase” (J Med Chem, 2007)

Tests used:
Mus musculus = experiment: Plasma concentration in CD1 NU/NU mouse at 10 mg/kg; assay type: ADME, organism-based; set-up: dose 10 mg/kg; conditions: in vivo
[1] = molecular target: Tyrosine-protein kinase Fgr (Homo sapiens, UniProt P09769); experiment: Inhibition of FGR
[2] = Volume of distribution in Sprague-Dawley rat at 2 mg/kg, iv; assay type: ADME, organism-based; set-up: dose 2 mg/kg, route intravenous; conditions: in vivo, read-out: Vss
Angiopoietin-1 receptor [3] = molecular target: T1, Angiopoietin-1 receptor (Homo sapiens, UniProt Q02763)
Description: Inhibition of TIE2 by HTRF assay

[4] = molecular target: Tyrosine-protein kinase JAK2 (Homo sapiens, UniProt O60674); experiment: Inhibition of Jak2
[5] = Plasma protein binding in CD1 NU/NU mouse; assay type: ADME, cell-free; conditions: read-out: PPB (converted)
Angiopoietin-1 receptor [6] = molecular target: T1, Angiopoietin-1 receptor; experiment: Inhibition of Ang1-stimulated TIE2 phosphorylation in EA.hy 926 endothelial cell line; assay type: functional, cell-based
[7] = molecular target: Tyrosine-protein kinase Fes/Fps (Homo sapiens, UniProt P07332); experiment: Inhibition of Fes
Ephrin type-B receptor 4 = molecular target: T2, Ephrin type-B receptor 4 (Homo sapiens, UniProt P54760); experiment: Inhibition of EpHB4
T2 sequence (P54760 whole entry): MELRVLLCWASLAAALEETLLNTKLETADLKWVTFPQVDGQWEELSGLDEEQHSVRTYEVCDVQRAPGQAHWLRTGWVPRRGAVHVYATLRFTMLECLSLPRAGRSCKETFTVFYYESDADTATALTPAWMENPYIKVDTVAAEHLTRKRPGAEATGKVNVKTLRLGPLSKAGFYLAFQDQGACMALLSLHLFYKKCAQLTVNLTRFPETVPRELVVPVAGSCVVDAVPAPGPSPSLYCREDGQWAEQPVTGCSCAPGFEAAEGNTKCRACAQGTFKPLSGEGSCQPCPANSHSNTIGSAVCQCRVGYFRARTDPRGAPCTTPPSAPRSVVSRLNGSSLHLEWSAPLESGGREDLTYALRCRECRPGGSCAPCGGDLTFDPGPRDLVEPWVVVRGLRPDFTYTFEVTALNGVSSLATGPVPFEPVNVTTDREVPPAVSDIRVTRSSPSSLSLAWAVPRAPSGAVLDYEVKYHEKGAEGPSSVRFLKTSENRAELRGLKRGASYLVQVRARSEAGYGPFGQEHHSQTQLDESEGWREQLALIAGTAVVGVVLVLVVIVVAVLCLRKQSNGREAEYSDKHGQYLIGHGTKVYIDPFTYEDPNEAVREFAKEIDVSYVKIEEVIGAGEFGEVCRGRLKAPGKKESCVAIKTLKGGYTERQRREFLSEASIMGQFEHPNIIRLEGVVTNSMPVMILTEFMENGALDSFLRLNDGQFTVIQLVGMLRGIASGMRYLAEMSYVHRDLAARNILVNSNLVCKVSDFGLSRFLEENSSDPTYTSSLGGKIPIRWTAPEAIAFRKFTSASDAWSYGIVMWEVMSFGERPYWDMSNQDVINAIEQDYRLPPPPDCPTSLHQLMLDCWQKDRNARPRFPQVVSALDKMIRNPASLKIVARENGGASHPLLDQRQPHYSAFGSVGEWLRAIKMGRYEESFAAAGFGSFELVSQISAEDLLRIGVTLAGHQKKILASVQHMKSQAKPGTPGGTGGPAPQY

Insulin receptor = Insulin receptor (Homo sapiens, UniProt P06213); experiment: Inhibition of INSR
[8] = molecular target: Mast/stem cell growth factor receptor Kit (Homo sapiens, UniProt P10721); experiment: Inhibition of c-Kit
[9] = Half life in Sprague-Dawley rat at 2 mg/kg, iv; assay type: ADME, organism-based; set-up: dose 2 mg/kg, route intravenous; conditions: in vivo
[10] = molecular target: T3, Tyrosine-protein kinase JAK3 (Homo sapiens, UniProt P52333); experiment: Inhibition of Jak3
T3 sequence (P52333 whole entry): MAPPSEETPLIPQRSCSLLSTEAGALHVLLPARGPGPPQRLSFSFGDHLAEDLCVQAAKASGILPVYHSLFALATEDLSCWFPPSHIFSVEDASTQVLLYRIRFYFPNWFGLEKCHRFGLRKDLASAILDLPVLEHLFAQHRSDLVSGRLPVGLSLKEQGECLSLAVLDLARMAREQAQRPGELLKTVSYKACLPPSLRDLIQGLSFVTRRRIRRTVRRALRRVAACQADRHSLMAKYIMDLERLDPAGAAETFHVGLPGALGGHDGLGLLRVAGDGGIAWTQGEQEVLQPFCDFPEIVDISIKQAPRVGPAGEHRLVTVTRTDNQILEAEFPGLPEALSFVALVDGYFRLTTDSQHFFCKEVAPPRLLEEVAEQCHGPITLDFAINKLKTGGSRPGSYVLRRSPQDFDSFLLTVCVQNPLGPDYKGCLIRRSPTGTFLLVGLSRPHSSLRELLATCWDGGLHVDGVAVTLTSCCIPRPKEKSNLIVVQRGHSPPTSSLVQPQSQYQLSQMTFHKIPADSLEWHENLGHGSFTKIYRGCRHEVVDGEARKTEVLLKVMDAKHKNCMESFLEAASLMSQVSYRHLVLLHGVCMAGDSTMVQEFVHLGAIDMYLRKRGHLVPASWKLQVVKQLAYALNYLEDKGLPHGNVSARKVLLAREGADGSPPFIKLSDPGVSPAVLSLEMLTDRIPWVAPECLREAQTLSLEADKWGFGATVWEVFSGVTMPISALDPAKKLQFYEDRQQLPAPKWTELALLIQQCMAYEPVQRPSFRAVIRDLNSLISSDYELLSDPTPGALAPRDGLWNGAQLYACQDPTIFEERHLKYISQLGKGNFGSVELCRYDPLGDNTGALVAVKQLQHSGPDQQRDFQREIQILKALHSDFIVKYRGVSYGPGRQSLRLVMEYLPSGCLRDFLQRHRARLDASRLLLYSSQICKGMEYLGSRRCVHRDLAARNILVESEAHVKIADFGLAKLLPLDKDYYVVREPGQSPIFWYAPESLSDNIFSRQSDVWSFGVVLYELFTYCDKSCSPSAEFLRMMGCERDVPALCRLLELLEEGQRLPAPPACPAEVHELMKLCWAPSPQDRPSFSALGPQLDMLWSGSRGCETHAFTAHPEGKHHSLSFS

[11] = molecular target: Tyrosine-protein kinase CSK (Homo sapiens, UniProt P41240); experiment: Inhibition of CSK
[12] = molecular target: Tyrosine-protein kinase Lyn (Homo sapiens, UniProt P07948); experiment: Inhibition of Lyn
[13] = molecular target: Hepatocyte growth factor receptor (Homo sapiens, UniProt P08581); experiment: Inhibition of c-Met
[14] = molecular target: Angiopoietin-1 receptor (Mus musculus) (UniProt Q02858); experiment: Inhibition of angiopoietin-1-induced TIE2 phosphorylation in CD1 NU/NU mouse; assay type: functional
[15] = Oral bioavailability in Sprague-Dawley rat at 5 mg/kg, po; assay type: ADME, organism-based; conditions: in vivo
[16] = Clearance in Sprague-Dawley rat at 2 mg/kg, iv; assay type: ADME, organism-based; set-up: dose 2 mg/kg, route intravenous; conditions: in vivo
[17] = molecular target: T4, Tyrosine-protein kinase ITK/TSK (Homo sapiens, UniProt Q08881); experiment: Inhibition of ITK
T4 sequence (Q08881 whole entry): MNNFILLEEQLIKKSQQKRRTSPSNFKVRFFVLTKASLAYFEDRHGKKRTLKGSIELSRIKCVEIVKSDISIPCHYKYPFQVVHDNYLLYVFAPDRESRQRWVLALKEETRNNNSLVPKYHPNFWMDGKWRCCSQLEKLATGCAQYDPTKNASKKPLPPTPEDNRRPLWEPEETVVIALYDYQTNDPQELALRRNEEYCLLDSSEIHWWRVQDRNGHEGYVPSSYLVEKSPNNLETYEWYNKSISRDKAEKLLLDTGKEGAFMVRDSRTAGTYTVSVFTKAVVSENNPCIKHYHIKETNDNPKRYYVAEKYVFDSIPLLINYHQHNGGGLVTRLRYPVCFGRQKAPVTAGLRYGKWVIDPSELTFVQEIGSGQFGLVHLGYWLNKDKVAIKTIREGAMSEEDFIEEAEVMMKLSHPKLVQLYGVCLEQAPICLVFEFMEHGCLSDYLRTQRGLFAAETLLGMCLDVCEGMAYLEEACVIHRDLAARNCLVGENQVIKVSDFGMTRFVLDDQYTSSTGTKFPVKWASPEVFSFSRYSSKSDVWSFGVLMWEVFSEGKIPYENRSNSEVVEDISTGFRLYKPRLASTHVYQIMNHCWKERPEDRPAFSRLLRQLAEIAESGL

[18] = molecular target: Angiopoietin-1 receptor (Mus musculus) (UniProt Q02858); experiment: Inhibition of angiopoietin-1-induced TIE2 phosphorylation in CD1 NU/NU mouse at 10 mg/kg; assay type: functional, organism-based; set-up: dose 10 mg/kg
[19] = AUC (0-infinity) in Sprague-Dawley rat at 5 mg/kg, po; assay type: ADME, organism-based; set-up: time infinity, dose 5 mg/kg, route oral; conditions: plasma
[20] = molecular target: Mitogen-activated protein kinase 14 (Homo sapiens, UniProt Q16539); experiment: Inhibition of p38alpha
[21] = molecular target: High affinity nerve growth factor receptor (Homo sapiens, UniProt P04629); experiment: Inhibition of TrkA
[22] = molecular target: Tyrosine-protein kinase JAK1 (Homo sapiens, UniProt P23458); experiment: Inhibition of Jak1
[23] = molecular target: Vascular endothelial growth factor receptor 2 (Homo sapiens, UniProt P35968)
[24] = molecular target: Tyrosine-protein kinase Lck (Homo sapiens, UniProt P06239)
Chain of Tyrosine-protein kinase Lck (P06239 whole entry): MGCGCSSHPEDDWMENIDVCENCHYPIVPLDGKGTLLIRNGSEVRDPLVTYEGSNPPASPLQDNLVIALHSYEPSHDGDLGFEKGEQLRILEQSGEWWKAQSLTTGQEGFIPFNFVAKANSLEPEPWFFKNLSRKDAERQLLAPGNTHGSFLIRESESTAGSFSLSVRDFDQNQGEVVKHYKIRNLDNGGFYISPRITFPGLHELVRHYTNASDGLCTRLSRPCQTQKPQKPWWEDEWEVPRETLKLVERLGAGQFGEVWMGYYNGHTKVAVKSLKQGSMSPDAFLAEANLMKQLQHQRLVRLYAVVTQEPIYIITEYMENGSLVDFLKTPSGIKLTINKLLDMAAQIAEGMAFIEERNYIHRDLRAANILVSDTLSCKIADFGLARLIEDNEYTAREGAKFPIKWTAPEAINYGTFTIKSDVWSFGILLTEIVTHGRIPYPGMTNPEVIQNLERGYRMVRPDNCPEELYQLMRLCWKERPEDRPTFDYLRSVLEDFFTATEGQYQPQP

T1 sequence (Q02763 whole entry): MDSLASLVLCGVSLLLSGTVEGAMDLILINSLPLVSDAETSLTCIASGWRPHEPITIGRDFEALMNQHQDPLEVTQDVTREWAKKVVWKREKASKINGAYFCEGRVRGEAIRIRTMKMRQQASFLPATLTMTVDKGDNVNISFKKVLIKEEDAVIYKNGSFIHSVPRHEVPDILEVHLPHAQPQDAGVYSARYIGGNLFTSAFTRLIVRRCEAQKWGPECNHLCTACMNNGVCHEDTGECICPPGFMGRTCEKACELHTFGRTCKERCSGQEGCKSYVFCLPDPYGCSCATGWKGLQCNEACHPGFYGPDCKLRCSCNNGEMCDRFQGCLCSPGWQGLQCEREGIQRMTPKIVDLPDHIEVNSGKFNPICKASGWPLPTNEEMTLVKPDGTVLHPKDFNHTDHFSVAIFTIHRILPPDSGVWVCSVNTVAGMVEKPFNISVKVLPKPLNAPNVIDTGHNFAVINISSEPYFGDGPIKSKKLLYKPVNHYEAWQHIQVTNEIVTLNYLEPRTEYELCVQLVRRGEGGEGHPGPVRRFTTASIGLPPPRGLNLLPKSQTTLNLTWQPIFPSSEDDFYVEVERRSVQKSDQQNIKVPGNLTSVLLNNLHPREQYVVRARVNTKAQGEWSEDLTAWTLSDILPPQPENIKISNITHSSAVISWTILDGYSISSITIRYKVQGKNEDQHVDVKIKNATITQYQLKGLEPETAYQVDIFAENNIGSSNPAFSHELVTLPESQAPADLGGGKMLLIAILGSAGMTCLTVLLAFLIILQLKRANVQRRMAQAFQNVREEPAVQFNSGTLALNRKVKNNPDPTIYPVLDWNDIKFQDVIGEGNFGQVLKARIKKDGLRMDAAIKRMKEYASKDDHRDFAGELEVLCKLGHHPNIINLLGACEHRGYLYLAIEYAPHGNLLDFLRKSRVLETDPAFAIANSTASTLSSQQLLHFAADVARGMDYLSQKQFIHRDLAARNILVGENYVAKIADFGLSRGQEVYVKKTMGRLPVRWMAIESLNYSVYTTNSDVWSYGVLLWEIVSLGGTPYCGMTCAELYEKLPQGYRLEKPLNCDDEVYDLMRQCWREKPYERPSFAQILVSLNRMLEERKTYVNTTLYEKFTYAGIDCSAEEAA
Chain of Vascular endothelial growth factor receptor 2 (P35968 whole entry): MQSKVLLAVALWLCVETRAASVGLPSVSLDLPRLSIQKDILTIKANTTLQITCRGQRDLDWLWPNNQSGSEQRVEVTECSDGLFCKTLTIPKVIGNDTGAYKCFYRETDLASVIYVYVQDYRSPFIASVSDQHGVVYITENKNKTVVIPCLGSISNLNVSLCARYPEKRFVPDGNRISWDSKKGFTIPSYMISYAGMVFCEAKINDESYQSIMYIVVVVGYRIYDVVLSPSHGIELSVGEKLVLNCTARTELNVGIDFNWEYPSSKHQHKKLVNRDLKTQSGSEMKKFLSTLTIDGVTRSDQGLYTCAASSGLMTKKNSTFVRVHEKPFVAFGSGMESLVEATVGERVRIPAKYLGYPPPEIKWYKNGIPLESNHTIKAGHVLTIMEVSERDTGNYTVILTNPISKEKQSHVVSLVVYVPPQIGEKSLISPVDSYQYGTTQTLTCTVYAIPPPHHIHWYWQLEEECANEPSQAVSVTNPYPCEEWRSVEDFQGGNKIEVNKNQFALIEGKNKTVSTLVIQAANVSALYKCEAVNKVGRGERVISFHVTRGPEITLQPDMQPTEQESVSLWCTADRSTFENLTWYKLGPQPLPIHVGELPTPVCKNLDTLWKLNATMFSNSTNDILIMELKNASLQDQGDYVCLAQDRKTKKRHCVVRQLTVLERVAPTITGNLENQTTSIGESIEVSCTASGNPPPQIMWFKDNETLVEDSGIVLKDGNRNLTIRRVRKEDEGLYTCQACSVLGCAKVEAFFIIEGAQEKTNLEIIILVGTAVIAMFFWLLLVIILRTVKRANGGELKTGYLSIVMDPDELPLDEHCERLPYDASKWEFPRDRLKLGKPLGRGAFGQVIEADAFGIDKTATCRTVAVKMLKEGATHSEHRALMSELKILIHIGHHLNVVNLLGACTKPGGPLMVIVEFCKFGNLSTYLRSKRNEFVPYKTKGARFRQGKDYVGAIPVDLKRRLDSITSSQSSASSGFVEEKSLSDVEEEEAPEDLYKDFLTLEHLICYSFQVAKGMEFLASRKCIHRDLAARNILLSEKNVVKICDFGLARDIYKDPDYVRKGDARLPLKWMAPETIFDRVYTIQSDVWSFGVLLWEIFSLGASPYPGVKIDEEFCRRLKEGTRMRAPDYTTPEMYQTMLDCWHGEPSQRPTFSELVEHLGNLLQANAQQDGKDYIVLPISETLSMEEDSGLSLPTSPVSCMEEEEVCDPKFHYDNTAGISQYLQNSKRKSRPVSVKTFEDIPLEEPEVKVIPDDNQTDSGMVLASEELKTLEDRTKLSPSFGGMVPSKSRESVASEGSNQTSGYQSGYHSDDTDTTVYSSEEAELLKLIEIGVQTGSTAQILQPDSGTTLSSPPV
Chain of Angiopoietin-1 receptor (Mus musculus) (Q02858 whole entry): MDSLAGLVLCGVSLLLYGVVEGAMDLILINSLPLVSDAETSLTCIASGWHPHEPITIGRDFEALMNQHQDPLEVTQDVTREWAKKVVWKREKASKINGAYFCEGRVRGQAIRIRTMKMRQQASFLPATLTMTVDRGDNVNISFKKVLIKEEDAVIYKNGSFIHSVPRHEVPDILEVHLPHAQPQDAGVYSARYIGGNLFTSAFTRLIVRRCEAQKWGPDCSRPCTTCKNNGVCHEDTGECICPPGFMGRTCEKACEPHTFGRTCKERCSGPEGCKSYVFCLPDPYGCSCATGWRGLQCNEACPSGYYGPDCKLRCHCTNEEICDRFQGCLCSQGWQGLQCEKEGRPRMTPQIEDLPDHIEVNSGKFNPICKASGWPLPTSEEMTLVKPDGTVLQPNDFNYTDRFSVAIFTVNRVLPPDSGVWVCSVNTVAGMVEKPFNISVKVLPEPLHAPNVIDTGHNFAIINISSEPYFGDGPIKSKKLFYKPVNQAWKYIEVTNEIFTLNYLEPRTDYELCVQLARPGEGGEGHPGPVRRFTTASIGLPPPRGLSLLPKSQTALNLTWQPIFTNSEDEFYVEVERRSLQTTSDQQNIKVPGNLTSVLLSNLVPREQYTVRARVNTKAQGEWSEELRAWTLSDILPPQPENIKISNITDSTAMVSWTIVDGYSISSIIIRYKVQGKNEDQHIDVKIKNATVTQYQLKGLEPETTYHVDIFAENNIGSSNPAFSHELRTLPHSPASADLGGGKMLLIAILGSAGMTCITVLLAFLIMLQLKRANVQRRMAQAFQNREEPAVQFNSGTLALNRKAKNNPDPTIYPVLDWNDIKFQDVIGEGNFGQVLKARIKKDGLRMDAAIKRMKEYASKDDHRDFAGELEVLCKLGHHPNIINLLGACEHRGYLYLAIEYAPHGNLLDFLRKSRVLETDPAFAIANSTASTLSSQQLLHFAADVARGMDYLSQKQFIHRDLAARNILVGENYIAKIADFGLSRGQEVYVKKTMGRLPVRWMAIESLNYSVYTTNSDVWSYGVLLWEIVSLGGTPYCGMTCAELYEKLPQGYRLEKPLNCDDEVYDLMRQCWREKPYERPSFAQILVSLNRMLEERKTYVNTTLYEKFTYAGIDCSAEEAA
Chain of Tyrosine-protein kinase Lyn (P07948 whole entry): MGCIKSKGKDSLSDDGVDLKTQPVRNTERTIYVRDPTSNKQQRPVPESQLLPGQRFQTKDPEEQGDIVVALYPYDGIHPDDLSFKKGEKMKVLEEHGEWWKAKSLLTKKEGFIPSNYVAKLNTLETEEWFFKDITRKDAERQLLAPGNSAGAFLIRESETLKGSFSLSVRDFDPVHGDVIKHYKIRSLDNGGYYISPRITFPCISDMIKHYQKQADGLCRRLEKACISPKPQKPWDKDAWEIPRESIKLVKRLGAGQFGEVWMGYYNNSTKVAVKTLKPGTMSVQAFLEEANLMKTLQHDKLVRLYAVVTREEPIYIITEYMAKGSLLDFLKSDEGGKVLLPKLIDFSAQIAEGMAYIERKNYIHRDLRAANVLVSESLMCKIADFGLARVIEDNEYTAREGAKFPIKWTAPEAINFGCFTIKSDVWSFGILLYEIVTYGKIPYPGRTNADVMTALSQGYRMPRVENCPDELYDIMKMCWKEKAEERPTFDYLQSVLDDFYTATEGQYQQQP
Chain of Mitogen-activated protein kinase 14 (Q16539 whole entry): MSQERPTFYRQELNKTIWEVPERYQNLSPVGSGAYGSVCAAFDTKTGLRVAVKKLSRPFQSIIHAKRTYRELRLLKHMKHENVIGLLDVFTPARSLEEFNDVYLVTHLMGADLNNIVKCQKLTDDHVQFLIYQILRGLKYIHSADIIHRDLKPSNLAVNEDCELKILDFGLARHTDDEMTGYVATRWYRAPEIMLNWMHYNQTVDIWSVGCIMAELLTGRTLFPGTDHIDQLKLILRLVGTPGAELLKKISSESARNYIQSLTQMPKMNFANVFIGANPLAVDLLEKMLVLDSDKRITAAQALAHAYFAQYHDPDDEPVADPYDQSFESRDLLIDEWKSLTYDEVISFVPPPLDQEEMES

Row | Compound | Vd [2] [L/kg] | IC50 (Angiopoietin-1 receptor [3]) [nM] | half-life [9] [h] | bioavailability [15] [%] | clearance [16] [mL/min/kg] | AUC(0-inf) [19] [ng·h/mL] | IC50 [23] [nM] | IC50 [24] [nM] | other results
1 | CN(C)[C@H]1CCCN(c2ccc(C(F)(F)F)cc2NC(=O)c2cc(C#Cc3cnc(N)nc3)ccc2F)C1 | 11.8 | 5 | 7.9 | 39 | 40 | 800 | – | – | concentration (Mus musculus): 1660 nM; IC50 [1]: 43 nM; IC50 [4]: 550 nM; fraction unbound [5]: 0.021; IC50 (Angiopoietin-1 receptor [6]): 8 nM; IC50 [7]: 910 nM; IC50 (Ephrin type-B receptor 4): 290 nM; IC50 (Insulin receptor): 2900 nM; IC50 [8]: 2800 nM; IC50 [10]: 1700 nM; IC50 [11]: 1800 nM; IC50 [12]: 180 nM; IC50 [13]: > 6700 nM; Activity [14]: Dose-dependent effect; IC50 [17]: > 5000 nM; inhibition [18]: 50%; IC50 [20]: > 8300 nM; IC50 [21]: 18 nM; IC50 [22]: 1300 nM
2 | Nc1ncc(C#Cc2cccc(C(=O)Nc3cc(C(F)(F)F)ccc3N3CCCCC3)c2)cn1 | – | – | – | – | – | – | > 1000 | – | –
3 | Cc1ccc(C(=O)Nc2cccc(C(F)(F)F)c2)cc1C#Cc1cnc2[nH]cnc2c1 | – | – | – | – | – | – | < 1 | < 1 | –
4 | Cc1ccc(C(=O)Nc2cccc(C(F)(F)F)c2)cc1-c1ccc2nc(N)ncc2c1 | – | 1 | – | – | – | – | – | < 1 | –
5 | Nc1ncc(C#Cc2ccc(F)c(C(=O)Nc3cc(C(F)(F)F)ccc3N3CCC[C@H](N)C3)c2)cn1 | 4.6 | – | 11.4 | 51 | 5.33 | 9300 | – | – | –

Continued, in another order:

Row | Vd [2] [L/kg] | IC50 (Angiopoietin-1 receptor [3]) [nM] | half-life [9] [h] | bioavailability [15] [%] | clearance [16] [mL/min/kg] | AUC(0-inf) [19] [ng·h/mL] | IC50 [23] [nM] | IC50 [24] [nM] | Compound | other results
6 | – | – | – | – | – | – | > 1000 | – | Cc1ccc(C(=O)Nc2cc(C(F)(F)F)ccc2N2CCCCC2)cc1C#Cc1cnc(N)nc1 | –
7 | – | – | – | – | – | – | < 1 | – | Nc1ncc(C#Cc2cccc(C(=O)Nc3cccc(C(F)(F)F)c3)c2)cn1 | –
8 | – | – | – | – | – | – | – | > 25000 | COc1ccc(C#Cc2cnc(N)nc2)cc1C(=O)Nc1cc(C(F)(F)F)ccc1N1CCCCC1 | –
9 | – | 44 | – | – | – | – | – | – | CN(C)[C@@H]1CCCN(c2ccc(C(F)(F)F)cc2NC(=O)c2cc(C#Cc3cnc(N)nc3)ccc2F)C1 | IC50 (Angiopoietin-1 receptor [6]): 98 nM
10 | 2.2 | – | 10.6 | 54 | 2.5 | 18600 | – | – | CN[C@H]1CCCN(c2ccc(C(F)(F)F)cc2NC(=O)c2cc(C#Cc3cnc(N)nc3)ccc2F)C1 | –
